Activity calls are given as the source filed them. The rule behind the calls is not given here.
Experiments:
PC-12 [1] = assay: Stimulation of NGF-mediated neurite outgrowth in rat PC12 cells at 10 and 20 uM after 48 hrs by inverted microscopic analysis; format: functional, cell-based
PC-12 [2] = assay: Effect on neurite outgrowth in rat PC12 cells at 10 and 20 uM after 48 hrs by inverted microscopic analysis; format: functional, cell-based
[3] = Cytotoxicity against rat PC12 cells assessed as cell viability at 10 and 20 uM after 72 hrs by SRB assay; format: cell-based; conditions: pc-12, 72 h
PC-12 [4] = assay: Stimulation of NGF-mediated neurite outgrowth in rat PC12 cells at 20 uM after 48 hrs by inverted microscopic analysis (reference value: 15.32 +/- 0.25%); format: functional

In the case of CC(C)[C@@H](C)/C=C/[C@@H](C)[C@H]1CC[C@H]2C3=CC(=O)[C@@]4(O)C[C@@H](O)CC[C@]4(C)[C@@]3(O)CC[C@]12C, the Activity (PC-12 [1]) is reported as “Active”, the Activity (PC-12 [2]) is reported as “inactive” and the Activity [3] is reported as “Non-toxic”.

With COc1cc2c(c3c1CC[C@@](C)(CC(=O)C=C(C)C)O3)C(=O)OC2 the Activity (PC-12 [1]) was “Active”, the Activity (PC-12 [2]) was “inactive” and the Activity [3] was “Non-toxic”. It also gave an Activity (PC-12 [4]) of 17.85%.

With C[C@H](CC[C@H](O)C(C)(C)O)[C@H]1CC[C@@]2(C)C3=C(CC[C@]12C)[C@@]1(C)CC[C@H](O)C(C)(C)C1CC3 (stereo partly drawn) the Activity (PC-12 [2]) was “inactive” and the Activity [3] was “Non-toxic”.

With COc1cc2c(c3c1CCC(C)(CC(=O)C=C(C)C)O3)C(=O)OC2 (racemic) the Activity (PC-12 [1]) was “Active”, the Activity (PC-12 [2]) was “inactive” and the Activity [3] was “Non-toxic”. It also gave an Activity (PC-12 [4]) of 19.96%.

For COc1cc2c(c3c1CC[C@](C)(CC(=O)C=C(C)C)O3)C(=O)OC2, the Activity (PC-12 [1]) was “Active”, the Activity (PC-12 [2]) was “inactive” and the Activity [3] was “Non-toxic”. The Activity (PC-12 [4]) was 21.79%.

In the case of CC1(C)CC[C@]2(C(=O)O)CC[C@]3(C)C(=CC[C@@H]4[C@@]5(C)CC[C@H](O)C(C)(C)[C@@H]5CC[C@]43C)[C@@H]2C1 [OLEANOLIC_ACID], the Activity (PC-12 [2]) is reported as “inactive” and the Activity [3] is reported as “Non-toxic”.

In the case of CCCCCCCCCCCCCCCCCCCC(O)C(=O)N[C@@H](CO)C(O)[C@H](O)CCCCCCCCCCCCCCCCC (stereo partly drawn), the Activity (PC-12 [2]) is reported as “inactive” and the Activity [3] is reported as “Non-toxic”.

In the case of CC(C)[C@@H](C)/C=C/[C@@H](C)[C@H]1CC[C@@H]2[C@]1(C)CC[C@H]1[C@]23C=C[C@]2(C[C@@H](O)CC[C@]12C)OO3 [ERGOSTEROL PEROXIDE], the Activity (PC-12 [1]) is reported as “Active”, the Activity (PC-12 [2]) is reported as “inactive” and the Activity [3] is reported as “Non-toxic”.

With CC(C)[C@@H](C)/C=C/[C@@H](C)[C@H]1CC[C@H]2C3=C[C@@H](O)[C@@]4(O)C[C@@H](O)CC[C@]4(C)[C@H]3CC[C@]12C [CEREVISTEROL] the Activity (PC-12 [1]) was “Active”, the Activity (PC-12 [2]) was “inactive” and the Activity [3] was “Non-toxic”.

In the case of C[C@H]1[C@H](C)CC[C@]2(C(=O)O)CC[C@]3(C)C(=CC[C@@H]4[C@@]5(C)CC[C@H](O)C(C)(C)[C@@H]5CC[C@]43C)[C@H]12 [URSOLIC ACID], the Activity (PC-12 [2]) is reported as “inactive” and the Activity [3] is reported as “Non-toxic”.

With C=C(C)[C@@H]1CC[C@]2(CO)CC[C@]3(C)[C@H](CC[C@@H]4[C@@]5(C)CC[C@H](O)C(C)(C)[C@@H]5CC[C@]43C)[C@@H]12 [BETULIN] the Activity (PC-12 [2]) was “inactive” and the Activity [3] was “Non-toxic”.

For C/C(=C\CC(O)[C@@H](C)[C@H]1CC[C@@]2(C)C3=C(CC[C@]12C)[C@@]1(C)CC[C@H](O)C(C)(C)C1CC3)C(=O)O (stereo partly drawn), the Activity (PC-12 [2]) was “inactive” and the Activity [3] was “Non-toxic”.
